Experimental data from patent publication US20230128730A1, “OXYGEN IMPERMEABLE PORPHYRIN PHOTOSENSITIZER FILM COMPOSITION FOR APPLICATION TO PLANTS” (SUNCOR ENERGY INC., priority 2020, published 2023).

Tested on: Pseudomonas syringae pv. tabaci
Assay: In vitro effect of PP IX and modified PP IX on Pseudomonas syringae pv. tabaci, with and without chelating agent
Assay type: cell-based
Conditions: 10 μM; illumination 1 hour, about 1000 μmol/m^2/s PAR; PBS control 8.7
Procedure: In this example, control of the gram-negative bacterial plant pathogen Pseudomonas syringae pv. tabaci with PP IX and modified PP IX was assessed, with and without chelating agents. Treatments were prepared in Phosphate Buffered Saline (PBS) in 96 well plates at desired concentrations. A bacterial suspension was inoculated into the PBS and incubated at 28° C. in the dark for 30 minutes. After 30 minutes, the 96 well plate was placed under illumination for 1 hour (at 21° C.). Following illumination, bacterial suspensions were serially diluted and 10 μL of each dilution is spread uniformly on Tryptic Soy Agar (TSA) plates and placed in the dark in an incubator at 28° C. for 48 hours. After 48 hours, bacterial colonies were counted, and the results were log transformed (log colony forming units (CFU)/mL). The relative inactivation was determined by taking the difference between log CFU(PBS control) and log CFU(treatments). Sample Illumination was provided by LED lights (Heliospectra RX30) emitting about 1000 μmol/m^2/s photosynthetically active radiation (PAR).

Protoporphyrin IX disodium salt [PP IX disodium salt]
log CFU/ml: 7.4 log CFU/ml
